We go through 1 substance from patent US10293004B2, “Butyrate-producing bacterium and use thereof” (KABUSHIKI KAISHA YAKULT HONSHA, priority 2014, dated 2019).

In one experiment the test system is mouse fresh feces. The experiment in a line: Relationship between increase in cell count of YIT 12355 and butyrate concentration in mouse feces culture system. As for the experimental part: 0.8 g of mouse fresh feces obtained 1 week after the start of the single dose test of Example 6 was collected into a sample tube and the tube was transferred into a glove box with the low-temperature and anaerobic state maintained. The feces were diluted with PBS anaerobically substituted in advance (final dilution: 12.5-fold), and a maltitol solution (final concentration: 0.5%) and/or a cultured bacterial solution of YIT 12355 (1% inoculated) was added thereto, followed by anaerobic culture at 37° C. for 24 hours. After the culture, the butyrate concentration was measured by ion-exclusion HPLC using an electric conductivity detector.

Experiment [1] can be described thus: Evaluation of ability to produce butyrate from indigestible saccharides (Example 3). The text has this:
Galactooligosaccharide (GOS), maltitol, D-mannitol, lactitol, isomalt, isomaltulose, L-sorbose and D-sorbitol were used as indigestible saccharides. These indigestible saccharides used, except for GOS, were reagent grade. GOS used was commercially available Oligomate 55N (Yakult Pharmaceutical Industry Co., Ltd.) from which monosaccharide and lactose fractions (fractions digestible and absorbable by the upper gastrointestinal tract) had been removed using an activated carbon column. Specifically, a saccharide solution diluted with purified water was added to a column packed with activated carbon (manufactured by Wako Pure Chemical Industries, Ltd.) swollen in purified water, and the column was washed with a 2% ethanol solution, followed by the elution of an indigestible fraction with a 50% ethanol solution. The eluate was dried under reduced pressure, and the obtained GOS saccharide solution was used.
A. hadrus YIT 10092^T (DSM 3119^T), which is a type strain of A. hadrus (a typical human intestinal butyrate-producing bacterium), and two isolates were used.
Each of these bacterial strains was anaerobically cultured at 37° C. for 24 hours in a PYA medium containing 33 mM sodium acetate supplemented with 0.5% D-glucose (PYGA medium). The culture solution was inoculated at 1% to a PYA medium containing 0.5 (w/v) % of each indigestible saccharide (test medium), followed by anaerobic culture at 37° C. for 24 hours. After the completion of the culture, the organic acid concentration in the culture solution was analyzed by ion-exclusion HPLC. The analysis conditions were the same as those described above in Example 2. After the quantification of the organic acid concentration, the amount of butyrate produced from each indigestible saccharide and the ratio of butyrate to total short-chain fatty acids were calculated according to the following expressions. (Amount of butyrate produced)=(Amount of butyrate in the test medium after culture)−(Amount of butyrate in a PYA medium without each indigestible saccharide after culture) (Ratio of butyrate)=(Amount of butyrate in the test medium after culture)/((Amount of acetate+Amount of propionate+Amount of butyrate) in the test medium after culture)×100 (Expression 3)

Experiment [2] can be described thus: Production of butyrate by each bacterial strain from L-sorbose and D-xylitol (ion-exclusion HPLC). The following applies: 24 hours, minus PYA blank. On the procedure: A frozen stock solution of each bacterial strain (a 10% (w/v) skim milk-2% sodium glutamate solution in which bacterial cells were suspended) (cell count: 2.0 to 5.5×10^10 cells/mL) was thawed, and the solution was inoculated at 1% to 4 mL of a PY liquid medium supplemented with 33 mM sodium acetate and 0.5 (w/v) % glucose (PYGA medium), followed by anaerobic culture at 37° C. for 24 hours. After the culture, the culture solution was inoculated at 1% to a fresh PYGA medium, followed by anaerobic culture at 37° C. for 24 hours. After the culture, the turbidity (OD660) of the culture solution was measured. Then, the culture solution was inoculated at 1% to a PY medium containing 0.5 (w/v) % L-sorbose or D-xylitol and 33 mM sodium acetate (the medium containing L-sorbose: PYSA, and the medium containing D-xylitol: PYXA), followed by anaerobic culture at 37° C. for 24 hours. Then, the turbidity (OD660) was measured.
After the completion of the culture, the organic acid concentration in the culture solution was quantified by ion-exclusion HPLC. In this operation, a culture solution in a PY medium supplemented with sodium acetate but without L-sorbose or D-xylitol (PYA medium) was used as a blank.
(HPLC Analysis Conditions) • Eluent: 15 mM perchloric acid-7% acetonitrile • pH adjuster: 15 mM perchloric acid-60 mM • tris(hydroxymethyl)aminomethane-7% acetonitrile • Separation column: Organic acid analysis column RSpak KC- • 811×2 (manufactured by Showa Denko K.K.) • Column temperature: 42° C. • Injected sample volume: 10 μL • Flow rate: 1.0 mL/min • Analysis time: 35 min • Detector: Waters 432 electric conductivity detector • Cell temperature: 45° C.
The amount of butyrate produced was calculated according to (Expression 1). Amount of butyrate produced=(Amount of butyrate produced by culture for 24 hours in a PYSA or PYXA medium)−(Amount of butyrate produced by culture for 24 hours in a PYA medium) (Expression 1)

Experiment [3] in a line: Biochemical properties: saccharide fermentability (API-ZYM, Rapid ID32A API, API KENKI 20A). The arrangement: key: +: positive reaction; −: negative reaction; +^w: weak reaction. The text has this: Commercially available API-ZYM, Rapid ID32A API, and API KENKI 20A (SYSMEX bioMerieux Co., Ltd.) were used in the testing of biochemical properties of various bacterial strains. The testing method followed the product manuals.

Turning to “A. hadrus (Eubacterium hadrum) YIT 12355 (NITE BP-01832)”, the “cell count of A. hadrus” value in the experiment with mouse fresh feces was “increased”. The butyrate concentration entry in the experiment with mouse fresh feces (maltitol 0.5% and/or YIT 12355 1% inoculated, 37° C. 24 hours, FIG. 8) is reported as “increased”. Moreover, the “ability to utilize indigestible saccharides” value in experiment [1] (PYA medium with 0.5 (w/v) % of each indigestible saccharide, versus type strain, FIGS. 3 and 4) was “more than the type strain YIT 10092^T”. For the same substance, in experiment [1] (from indigestible saccharides, versus type strain, FIG. 3), the “Amount of butyrate produced” value is reported as “larger”. Besides, in experiment [1] (versus type strain YIT 10092^T, FIG. 4), the “ratio of butyrate to total short-chain fatty acids” value is on record as “higher than that of the type strain YIT 10092^T”. Further, the “Amount of butyrate produced” value in experiment [2] (D-Xylitol 0.5 (w/v) %, PYXA medium) is given as 31.9 mmol/L. Moreover, the “Amount of butyrate produced” value in experiment [2] (L-Sorbose 0.5 (w/v) %, PYSA medium) came to 15.4 mmol/L. In experiment [3], the Aesculin entry was “+”, the D-Cellobiose entry is “+^w”, the D-Mannitol result was “+” and the D-Raffinose entry is reported as “−”. Also, in experiment [3], the D-Xylose entry is “+”, the Glycerol result is recorded as “+^w”, the L-Arabinose entry is given as “+” and the L-Rhamnose entry is “+”. For the same substance, in experiment [3], the L-Sorbitol entry was “+”, the Mallose result is “+” and the Salicin result is “+”.
